What all share (type): toxicity, cell-based
One data set deals with HEK-293T. As to the kind of experiment: Incucyte cell viability with HEK293T. To be noted: human, 10 µM, compound concentration 10 uM.
For a further data set, the system named is Fibroblast. The data set is described as follows: Incucyte cell viability with human fibroblast. The conditions noted are these: 10 µM, compound concentration 10 uM.
The test system of the next data set is U2OS. The data set is described as follows: Incucyte cell viability with U2OS. To be noted: human, 10 µM, compound concentration 10 uM.
Further: unitless GR value; below 1 slowed growth and below 0 cell loss.

`Cn1cc(NC(=O)c2ccc3nc4n(c3c2)CCCNC4=O)nc1C(=O)NC1CCCC1`: the “Growth Rate” value in the data set with HEK-293T (0 h, replicate number 2) was 0.71; in the data set on HEK-293T (6 h, replicate number 2), 0.99; in the data set with HEK-293T (12 h, replicate number 1), 0.69; in the data set on HEK-293T (12 h, replicate number 2), 0.88; with HEK-293T (18 h, replicate number 1) it was 0.64; in the data set on HEK-293T (18 h, replicate number 2), 0.85. The “Growth Rate” value is reported as 0.81 in the data set with HEK-293T (24 h, replicate number 1); 0.9 with HEK-293T (24 h, replicate number 2); 0.88 with Fibroblast (0 h, replicate number 1); 0.62 in the data set on Fibroblast (0 h, replicate number 2); 0.57 in the data set on Fibroblast (6 h, replicate number 2); 0.67 with Fibroblast (12 h, replicate number 1). Besides, the “Growth Rate” value is 0.76 in the data set on Fibroblast (12 h, replicate number 2); 0.91 in the data set on Fibroblast (18 h, replicate number 1); 0.78 with Fibroblast (18 h, replicate number 2); 0.79 in the data set with Fibroblast (24 h, replicate number 1); 0.92 in the data set on Fibroblast (24 h, replicate number 2); 0.36 in the data set on U2OS (0 h, replicate number 1). In addition, the “Growth Rate” value in the data set on U2OS (12 h, replicate number 1) is on record as 0.82; with U2OS (12 h, replicate number 2), 0.97; with U2OS (18 h, replicate number 1), 0.95; in the data set with U2OS (18 h, replicate number 2) it was 0.99; in the data set with U2OS (24 h, replicate number 1) it was 0.91.
Turning to `Cc1nccn1-c1ccc(Sc2cccc(C3(C(N)=O)CCOCC3)c2)cc1`, the “Growth Rate” value in the data set with HEK-293T (6 h, replicate number 1) is on record as 0.3; with HEK-293T (6 h, replicate number 2), -0.79; with HEK-293T (12 h, replicate number 1) it was 0.47; in the data set with HEK-293T (12 h, replicate number 2), -0.38; with HEK-293T (18 h, replicate number 1), 0.41; in the data set with HEK-293T (18 h, replicate number 2), -0.09. The “Growth Rate” value is recorded as 0.4 in the data set on HEK-293T (24 h, replicate number 1); 0.1 with HEK-293T (24 h, replicate number 2); 0.46 in the data set on Fibroblast (0 h, replicate number 2); 0.34 in the data set with Fibroblast (6 h, replicate number 1); -0.58 in the data set with Fibroblast (6 h, replicate number 2); 0.28 in the data set with Fibroblast (12 h, replicate number 1). In addition, the “Growth Rate” value with Fibroblast (12 h, replicate number 2) is given as 0.59; in the data set with Fibroblast (18 h, replicate number 1), 0.33; with Fibroblast (18 h, replicate number 2) it was 0.72; in the data set on Fibroblast (24 h, replicate number 1) it was 0.45; in the data set with Fibroblast (24 h, replicate number 2), 0.71; in the data set on U2OS (6 h, replicate number 2), 0.9. Further, the “Growth Rate” value in the data set on U2OS (12 h, replicate number 1) is given as 0.88; with U2OS (12 h, replicate number 2), 0.71; in the data set on U2OS (18 h, replicate number 2), 0.78; in the data set on U2OS (24 h, replicate number 1), 0.88; in the data set with U2OS (24 h, replicate number 2), 0.81.
Regarding `C[C@]12CC[C@@H]3c4ccc(C(N)=O)cc4CC[C@H]3[C@@H]1CC=C2c1cncc(F)c1`, the “Growth Rate” value with HEK-293T (0 h, replicate number 1) is reported as -0.13; with HEK-293T (6 h, replicate number 1), 0.93; in the data set on HEK-293T (6 h, replicate number 2), -0.72; with HEK-293T (12 h, replicate number 1), 0.9; with HEK-293T (12 h, replicate number 2), 0.31; with HEK-293T (18 h, replicate number 1), 0.96. Also, the “Growth Rate” value in the data set on HEK-293T (18 h, replicate number 2) was 0.29; in the data set on HEK-293T (24 h, replicate number 1) it was 0.97; in the data set with HEK-293T (24 h, replicate number 2) it was 0.4; in the data set on Fibroblast (0 h, replicate number 2), -0.92; in the data set with U2OS (0 h, replicate number 1), 0.64; in the data set on U2OS (12 h, replicate number 1) it was 0.98. For the same molecule, the “Growth Rate” value in the data set on U2OS (12 h, replicate number 2) was determined as 0.79; in the data set on U2OS (18 h, replicate number 2) it was 0.92; in the data set on U2OS (24 h, replicate number 2), 1.
Turning to `Cc1nc2cccnc2n2c(-c3cc(C(C)(C)O)ncc3Cl)nnc12`, the “Growth Rate” value in the data set with HEK-293T (0 h, replicate number 1) is listed as 0.72; with HEK-293T (0 h, replicate number 2), -0.52; in the data set with Fibroblast (0 h, replicate number 1), -1; in the data set on Fibroblast (0 h, replicate number 2), -0.22; with Fibroblast (6 h, replicate number 1), 0.43; with Fibroblast (18 h, replicate number 1), 0.63. In addition, the “Growth Rate” value in the data set with U2OS (0 h, replicate number 2) came to 0.27; in the data set with U2OS (6 h, replicate number 2), 0.32; with U2OS (12 h, replicate number 2), 0.74; in the data set with U2OS (18 h, replicate number 2), 0.95.

These data come from ChEMBL document CHEMBL5303304, “EUbOPEN Chemogenomics Library - IncuCyte” (2023).
